The text below walks through data of the NIST ThermoML archive (doi:10.1021/je800468h).

± gives the expanded uncertainty stated by the source.

For this data set the following is noted: 298.15 K, 101 kPa, Liquid.

In general, mass density refers to mass per unit of volume. On to `CCCCn1cc[n+](C)c1.F[P-](F)(F)(F)(F)F` [1-butyl-3-methylimidazolium hexafluorophosphate], for which the electrical conductivity (Alternating current cell with electrodes) came to 0.147 ± 0.0015 S/m. Also, the mass density (Vibrating tube method) is given as 1368.32 ± 10 kg/m3.
